Literature values in patent publication US7700579B2, “Process for the preparation of piroxicam: b-cyclodextrin inclusion compounds” (Chiesi Farmaceutici S.p.A., priority 2002, dated 2010).

Details: pH 5, 37° C.

solubility in water: 0.003%
SMILES: CN1C(C(=O)Nc2ccccn2)=C(O)c2ccccc2S1(=O)=O [Piroxicam]
